“Also recorded” adds a separate entry of the source. Read-outs that look alike come from different tables or passages of the source.
How the values were obtained:
[1] = target: D. plexippus-Na^+/K^+-ATPase (Danaus plexippus, UniProt K0G7C4); test: In vitro inhibition assay of D. plexippus Na+/K+-ATPase (phosphate release); type: biochemical; conditions: for inhibition of D. plexippus Na^+/K^+-ATPase compared to ouabain: DP, F-test comparison of entire dose-response curves with ouabain; for IC50: read-out: IC50 D. plexippus- Na^+/K^+-ATPase, Na+/K+-ATPase extracted from butterfly brains; for fold difference between IC50 values, non-adapted (E. core/S. gregaria) vs adapted (D. plexippus) insect Na^+/K^+-ATPase: Figure 2, last number, S. gregaria values used for ouabain and digitoxigenin
Sequence of D. plexippus-Na^+/K^+-ATPase (K0G7C4 1-1009): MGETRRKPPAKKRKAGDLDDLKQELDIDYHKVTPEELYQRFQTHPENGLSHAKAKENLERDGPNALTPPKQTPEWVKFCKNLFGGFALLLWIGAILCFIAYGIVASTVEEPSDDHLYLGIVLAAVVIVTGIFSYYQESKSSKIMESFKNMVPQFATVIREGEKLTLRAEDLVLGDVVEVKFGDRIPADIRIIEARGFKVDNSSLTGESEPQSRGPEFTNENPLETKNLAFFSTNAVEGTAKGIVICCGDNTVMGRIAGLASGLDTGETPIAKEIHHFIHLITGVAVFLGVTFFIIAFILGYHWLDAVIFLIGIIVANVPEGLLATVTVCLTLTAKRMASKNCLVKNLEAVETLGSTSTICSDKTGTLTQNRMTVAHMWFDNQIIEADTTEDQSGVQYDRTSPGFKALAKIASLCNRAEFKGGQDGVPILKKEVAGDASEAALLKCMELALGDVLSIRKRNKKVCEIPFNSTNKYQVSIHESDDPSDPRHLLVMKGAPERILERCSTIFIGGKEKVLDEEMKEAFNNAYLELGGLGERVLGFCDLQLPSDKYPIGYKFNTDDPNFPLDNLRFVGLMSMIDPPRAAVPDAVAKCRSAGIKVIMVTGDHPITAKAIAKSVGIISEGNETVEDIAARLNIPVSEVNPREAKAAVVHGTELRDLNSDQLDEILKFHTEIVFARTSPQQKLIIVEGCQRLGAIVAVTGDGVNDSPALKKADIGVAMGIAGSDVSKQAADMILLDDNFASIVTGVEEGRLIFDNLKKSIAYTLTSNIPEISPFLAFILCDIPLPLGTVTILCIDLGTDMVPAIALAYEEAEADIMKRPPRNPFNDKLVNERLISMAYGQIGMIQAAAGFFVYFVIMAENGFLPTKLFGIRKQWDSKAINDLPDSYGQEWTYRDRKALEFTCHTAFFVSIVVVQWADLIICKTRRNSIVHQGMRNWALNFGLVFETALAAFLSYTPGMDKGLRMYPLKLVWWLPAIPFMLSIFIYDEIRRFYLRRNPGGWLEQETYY
Procedure: (§1) Danaus plexippus was caught in the field or purchased; E. core and S. gregaria were obtained commercially, with additional E. core from a laboratory colony. […] Briefly, brains dissected from butterflies stored at -80°C or recta from locusts were homogenized (individually or pooled) with an all glass grinder (Wheaton) in deionized water, frozen at -80°C, freeze-dried, and stored frozen until use. For in vitro assays, lyophilisates were dissolved in water, sonicated in an ultrasonic bath, and centrifuged to remove undissolved matter. All cardiac glycosides were tested at least with three biological replicates of Na^+/K^+-ATPase (i.e., Na^+/K^+-ATPase from genetically different specimens or pools of specimens).
(§2) Means of duplicate determinations (i.e., technical replicates) were used as data points. In consequence, each data point of a dose–response curve is the mean of at least three biological replicates based on two technical replicates, each. […] Here, technical replicates collected on the same 96-well plate were averaged and used as data points.
(§3) Stock solutions of cardiac glycosides, as well as pregnane glycosides, were prepared from crystalline compounds in DMSO. While concentrations of all other compounds were based on mass, calactin, and calotropin stock solutions were adjusted with HPLC using digitoxin as a reference.
(§4) Pairwise statistical comparisons of dose-response curves were carried out using the “compare datasets” option in OriginPro, which is based on an F-Test evaluating if the two curves are identical. Correlation analyses using log10-transformed IC50 values was also carried out with OriginPro. […] To analyze relative selectivity without a reference, we also plotted the fold differences between the IC50 values of individual cardenolides for non-adapted and adapted insect Na^+/K^+-ATPase and compared them to mammalian (lamb) Na^+/K^+-ATPase (Figure 2).

[2] = target: S. gregaria-Na^+/K^+-ATPase (Schistocerca gregaria, UniProt A0A8E5JSN5); type: biochemical
Sequence of S. gregaria-Na^+/K^+-ATPase (A0A8E5JSN5 1-1039): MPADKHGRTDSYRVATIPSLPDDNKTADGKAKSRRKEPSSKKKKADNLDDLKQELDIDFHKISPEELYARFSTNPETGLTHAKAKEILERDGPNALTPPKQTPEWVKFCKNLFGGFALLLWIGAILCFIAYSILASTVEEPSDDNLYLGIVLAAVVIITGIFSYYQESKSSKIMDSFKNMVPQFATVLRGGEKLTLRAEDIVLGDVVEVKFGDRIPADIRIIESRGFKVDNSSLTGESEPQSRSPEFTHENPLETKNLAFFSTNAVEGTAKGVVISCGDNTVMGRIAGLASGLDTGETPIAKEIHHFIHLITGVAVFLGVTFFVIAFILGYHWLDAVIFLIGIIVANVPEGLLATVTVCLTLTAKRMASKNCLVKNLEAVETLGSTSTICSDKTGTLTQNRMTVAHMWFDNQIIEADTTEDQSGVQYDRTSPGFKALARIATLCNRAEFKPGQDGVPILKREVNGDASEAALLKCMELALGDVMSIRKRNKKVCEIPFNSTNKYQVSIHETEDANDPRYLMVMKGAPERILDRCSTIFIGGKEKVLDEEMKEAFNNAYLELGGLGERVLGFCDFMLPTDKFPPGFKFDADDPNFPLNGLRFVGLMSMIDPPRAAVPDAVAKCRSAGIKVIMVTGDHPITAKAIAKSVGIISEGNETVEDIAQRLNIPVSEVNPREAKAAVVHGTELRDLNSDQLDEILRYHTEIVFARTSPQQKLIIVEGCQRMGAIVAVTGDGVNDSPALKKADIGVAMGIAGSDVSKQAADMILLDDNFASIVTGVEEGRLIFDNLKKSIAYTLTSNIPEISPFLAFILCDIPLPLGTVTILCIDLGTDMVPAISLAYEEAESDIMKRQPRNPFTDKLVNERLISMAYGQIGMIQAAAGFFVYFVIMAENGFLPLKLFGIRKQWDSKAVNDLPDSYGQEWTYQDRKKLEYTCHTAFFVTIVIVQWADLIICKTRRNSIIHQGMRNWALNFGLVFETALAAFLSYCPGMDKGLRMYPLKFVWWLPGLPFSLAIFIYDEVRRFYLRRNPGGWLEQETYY
Procedure: as §1, §2, §3, §4

lamb Na^+/K^+-ATPase = test: Fold differences of IC50 between lamb and insect Na+/K+-ATPases; type: biochemical; conditions: lamb IC50 inferred from ref Paula et al., 2005; for fold difference between IC50 values, lamb vs adapted insect (D. plexippus) Na^+/K^+-ATPase: Figure 2, first number; for fold difference between IC50 values, lamb vs non-adapted insect (E. core/S. gregaria) Na^+/K^+-ATPase: Figure 2, second number
Procedure: as §4

E. core-Na^+/K^+-ATPase = E. core-Na^+/K^+-ATPase (Euploea core, UniProt A0A5C0C9F5); test: In vitro inhibition assay of E. core Na+/K+-ATPase (phosphate release); type: biochemical; conditions: for inhibition of E. core Na^+/K^+-ATPase compared to ouabain: EC, F-test comparison of entire dose-response curves with ouabain; for IC50: read-out: IC50 E. core- Na^+/K^+-ATPase, Na+/K+-ATPase extracted from butterfly brains
Sequence of E. core-Na^+/K^+-ATPase (A0A5C0C9F5 1-1013): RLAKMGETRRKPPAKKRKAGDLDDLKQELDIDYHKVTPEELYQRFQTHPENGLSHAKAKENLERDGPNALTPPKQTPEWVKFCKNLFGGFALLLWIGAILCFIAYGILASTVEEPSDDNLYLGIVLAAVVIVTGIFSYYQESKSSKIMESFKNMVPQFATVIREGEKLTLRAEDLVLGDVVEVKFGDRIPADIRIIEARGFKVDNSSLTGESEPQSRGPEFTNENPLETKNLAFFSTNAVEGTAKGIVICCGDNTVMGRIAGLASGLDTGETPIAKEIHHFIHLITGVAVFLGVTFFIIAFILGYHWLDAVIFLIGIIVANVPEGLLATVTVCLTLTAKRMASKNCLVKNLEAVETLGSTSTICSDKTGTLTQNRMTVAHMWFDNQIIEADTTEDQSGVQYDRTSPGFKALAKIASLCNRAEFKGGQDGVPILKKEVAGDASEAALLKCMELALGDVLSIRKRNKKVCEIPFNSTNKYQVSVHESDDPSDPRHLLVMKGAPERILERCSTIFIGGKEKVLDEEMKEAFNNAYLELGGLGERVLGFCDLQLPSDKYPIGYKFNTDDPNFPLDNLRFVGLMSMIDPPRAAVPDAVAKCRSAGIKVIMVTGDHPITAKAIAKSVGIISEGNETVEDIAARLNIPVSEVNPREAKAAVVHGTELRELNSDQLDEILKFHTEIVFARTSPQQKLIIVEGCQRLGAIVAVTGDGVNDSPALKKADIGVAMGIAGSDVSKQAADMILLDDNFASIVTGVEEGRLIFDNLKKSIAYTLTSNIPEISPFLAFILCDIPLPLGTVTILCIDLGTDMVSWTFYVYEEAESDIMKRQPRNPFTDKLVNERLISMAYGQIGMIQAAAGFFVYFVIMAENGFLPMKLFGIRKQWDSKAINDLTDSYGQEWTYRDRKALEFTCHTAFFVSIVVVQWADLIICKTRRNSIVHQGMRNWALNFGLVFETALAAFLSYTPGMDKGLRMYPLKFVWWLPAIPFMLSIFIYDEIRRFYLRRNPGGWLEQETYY
Procedure: as §1, §2, §3, §4

porcine Na^+/K^+-ATPase = test: In vitro inhibition assay of porcine Na+/K+-ATPase; type: biochemical, pig; conditions: for inhibition of porcine Na^+/K^+-ATPase compared to ouabain: F-test comparison of dose-response curves with ouabain; for IC50: purified from pig brain, 0.01 U/ml in the assay
Procedure: Lyophilized Na^+/K^+-ATPase was dissolved in water to a concentration of 1 U/ml, stored at -80°C in single-use aliquots and diluted with H2O to 0.05 U/ml for use in the in vitro assay (final concentration in the assay 0.01 U/ml).
as §4

physchem = conditions: aqueous with cosolvent or surfactant or cyclodextrin, kinetic from dmso stock
Procedure: as §3

[3] = SG; F-test comparison of entire dose-response curves with ouabain
[4] = read-out: IC50 S. gregaria- Na^+/K^+-ATPase; Na+/K+-ATPase extracted from locust recta
[5] = Na+/K+-ATPase extracted from locust recta; read-out: IC50 S. gregaria- Na^+/K^+-ATPase

SMILES	inhibition of D. plexippus Na^+/K^+-ATPase compared to ouabain [1]	IC50 [1]	inhibition of S. gregaria Na^+/K^+-ATPase compared to ouabain [2, 3]	IC50 [2, 4]	fold difference between IC50 values, lamb vs adapted insect (D. plexippus) Na^+/K^+-ATPase (lamb Na^+/K^+-ATPase)	fold difference between IC50 values, lamb vs non-adapted insect (E. core/S. gregaria) Na^+/K^+-ATPase (lamb Na^+/K^+-ATPase)	fold difference between IC50 values, non-adapted (E. core/S. gregaria) vs adapted (D. plexippus) insect Na^+/K^+-ATPase [1]	IC50 [2, 5]	inhibition of E. core Na^+/K^+-ATPase compared to ouabain (E. core-Na^+/K^+-ATPase)	IC50 (E. core-Na^+/K^+-ATPase)	inhibition of porcine Na^+/K^+-ATPase compared to ouabain (porcine Na^+/K^+-ATPase)	IC50 (porcine Na^+/K^+-ATPase)	solubility (physchem)	inhibition by glycoside relative to corresponding genin (strophanthidin) on D. plexippus-Na^+/K^+-ATPase ([1]; cymarin vs strophanthidin)
C[C@H]1O[C@@H](O[C@H]2[C@@H](O)C[C@H](O[C@H]3[C@@H](O)C[C@H](O[C@H]4CC[C@@]5(C)[C@H](CC[C@@H]6[C@@H]5CC[C@]5(C)[C@@H](C7=CC(=O)OC7)CC[C@]65O)C4)O[C@@H]3C)O[C@@H]2C)C[C@H](O)[C@@H]1O [digitoxin, reference compound]	> ouabain; F2,6 = 116.84, p < 0.001	14.8 µM	= ouabain; F2,6 = 5.07, p = 0.05	1.37 µM										
C[C@]12CC[C@H]3[C@@H](CC[C@]4(O)C[C@@H](O)CC[C@]34C=O)[C@@]1(O)CC[C@@H]2C1=CC(=O)OC1 [strophanthidin]	> ouabain; F2,6 = 9.41, p = 0.01	64.8 µM												
CC(=O)O[C@H]1C[C@H](O[C@H]2[C@@H](O)C[C@H](O[C@H]3[C@@H](O)C[C@H](O[C@H]4CC[C@@]5(C)[C@H](CC[C@@H]6[C@@H]5C[C@@H](O)[C@]5(C)[C@@H](C7=CC(=O)OC7)CC[C@]65O)C4)O[C@@H]3C)O[C@@H]2C)O[C@H](C)[C@H]1O[C@@H]1O[C@H](CO)[C@@H](O)[C@H](O)[C@H]1O [lanatoside C, reference compound]	< ouabain; F2,6 = 17.23, p = 0.003	644 µM	< ouabain; F2,6 = 82.96, p < 0.001		1564 x	30 x	52 x	12.4 µM						
C[C@@H]1C[C@H](O)[C@]2(O)O[C@@H]3C[C@@]4(C=O)[C@@H](CC[C@@H]5[C@@H]4CC[C@]4(C)[C@@H](C6=CC(=O)OC6)CC[C@]54O)C[C@H]3O[C@@H]2O1 [calotropin]	> ouabain; F2,7 = 154.4, p < 0.001	5.36 µM					17 x		> ouabain; F2,7 = 54.31, p < 0.001	0.323 µM				
C[C@]12CC[C@H](O[C@@H]3O[C@H](CO[C@@H]4O[C@H](CO)[C@@H](O)[C@H](O)[C@H]4O)[C@@H](O)[C@H](O)[C@H]3O)C[C@@H]1CC[C@@H]1[C@@H]2CC[C@]2(C)[C@@H](C3=CC(=O)OC3)CC[C@]12O [uzarin]	substantially stronger inhibition than ouabain; also recorded: > ouabain; F2,7 = 70.04, p < 0.001	18.8 µM					6 x		far weaker inhibition than ouabain; also recorded: < ouabain; F2,7 = 39.97, p < 0.001	2.91 µM	not different from the effect of ouabain	0.452 µM		
CO[C@H]1C[C@H](O[C@H]2CC[C@@]3(C)[C@H](CC[C@@H]4[C@@H]3CC[C@]3(C)[C@@H](C5=CC(=O)OC5)[C@@H](OC(C)=O)C[C@]43O)C2)O[C@@H](C)[C@@H]1O [oleandrin]	> ouabain; F2,6 = 252.64, p < 0.001	3.68 µM	= ouabain; F2,6 = 2.24, p = 0.19	0.834 µM									< 100 µM	
C[C@]12CC[C@H](O)C[C@H]1CC[C@@H]1[C@@H]2CC[C@]2(C)[C@@H](C3=CC(=O)OC3)CC[C@]12O [digitoxigenin]	> ouabain; F2,6 = 54.05, p < 0.001	24.8 µM	< ouabain; F2,6 = 17.5, p = 0.003	2.73 µM					< ouabain; F2,6 = 180.27, p < 0.001	4.12 µM				
C[C@]12CC[C@H](O)C[C@H]1CC[C@@H]1[C@@H]2CC[C@]2(C)[C@@H](C3=CC(=O)OC3)[C@@H](O)C[C@]12O [gitoxigenin]		256 µM	much lower extent compared to ouabain		1633 x	241 x	7 x	37.8 µM						
C[C@@H]1C[C@@H](O)[C@]2(O)O[C@@H]3C[C@@]4(C=O)[C@@H](CC[C@@H]5[C@@H]4CC[C@]4(C)[C@@H](C6=CC(=O)OC6)CC[C@]54O)C[C@H]3O[C@@H]2O1 [calactin]	more potently than ouabain; also recorded: > ouabain; F2,7 = 4706.35, p < 0.001	2.15 µM					23 x		more potently than ouabain; also recorded: > ouabain; F2,7 = 496.50, p < 0.001	0.092 µM				
C[C@@H]1O[C@@H](O[C@H]2C[C@@H](O)[C@]3(CO)[C@H]4[C@H](O)C[C@]5(C)[C@@H](C6=CC(=O)OC6)CC[C@]5(O)[C@@H]4CC[C@]3(O)C2)[C@H](O)[C@H](O)[C@H]1O [ouabain, reference compound]		94 µM		0.997 µM						1.03 µM		0.486 µM		
C[C@]12CC[C@H](O[C@@H]3O[C@H](CO)[C@@H](O)[C@H](O)[C@H]3O)C[C@@H]1CC[C@@H]1[C@@H]2CC[C@]2(C)[C@@H](C3=CC(=O)OC3)CC[C@]12O [desglucouzarin]	strongly inhibitory effect; also recorded: > ouabain; F2,7 = 455.90, p < 0.001	6.42 µM					10 x		nearly the same inhibitory effect as ouabain	0.62 µM	more strongly than ouabain	0.268 µM		
CO[C@H]1C[C@H](O[C@H]2CC[C@]3(C=O)[C@H]4CC[C@]5(C)[C@@H](C6=CC(=O)OC6)CC[C@]5(O)[C@@H]4CC[C@]3(O)C2)O[C@H](C)[C@H]1O [cymarin]	> ouabain; F2,6 = 514.53, p < 0.001	6.99 µM	> ouabain; F2,6 = 6.37, p = 0.03		36 x	2 x	21 x	0.334 µM						ninefold
C[C@@H]1O[C@@H](O[C@H]2CC[C@]3(C=O)[C@H]4CC[C@]5(C)[C@@H](c6ccc(=O)oc6)CC[C@]5(O)[C@@H]4CC[C@]3(O)C2)[C@H](O)[C@H](O)[C@H]1O[C@@H]1O[C@H](CO)[C@@H](O)[C@H](O)[C@H]1O [hellebrin]	> ouabain; F2,6 = 1420.98, p < 0.001	0.842 µM												
CC12CC(O)C3C(CCC4(O)CC(O)CC(O)C34CO)C1(O)CCC2C1=CC(=O)OC1 (stereo not shown) [ouabagenin]	< ouabain; F2,6 = 80.0, p < 0.001	841 µM	< ouabain; F2,6 = 201.2, p < 0.001		1821 x	44 x	41 x	20.4 µM						
C[C@]12CC[C@H](O)C[C@H]1CC[C@@H]1[C@@H]2C[C@@H](O)[C@]2(C)[C@@H](C3=CC(=O)OC3)CC[C@]12O [digoxigenin]	< ouabain; F2,6 = 30.1, p < 0.001	379 µM	< ouabain; F2,6 = 151.91, p < 0.001	11.8 µM										
